According to patent publication US20250367233A1, “NOVEL PHARMACEUTICAL COMPOSITION CONTAINING IRON AND MEGLUMINE” (priority 2024, published 2025):

Assay: Solubility of ferric meglumine / meglumine in solvents

Compound: CNC[C@H](O)[C@@H](O)[C@H](O)[C@H](O)CO [Meglumine, N-Methyl-D-glucamine]
- solubility in water: soluble
